# Laboratory results from ChEMBL document CHEMBL2401655, “Synthesis and antiprotozoal activity of novel 2-{[2-(1H-imidazol-1-yl)ethyl]sulfanyl}-1H-benzimidazole derivatives” (Bioorg Med Chem Lett, 2013).
# Experiments:
# Type in all cases: functional, organism-based
# [1] = test system: Entamoeba histolytica; experiment: Antiprotozoal activity against trophozoite stage of Entamoeba histolytica HM-1:IMSS assessed as growth inhibition after 48 hrs by haemocytometric analysis
# [2] = test system: Giardia intestinalis; experiment: Antiprotozoal activity against trophozoite stage of Giardia intestinalis IMSS:0981:1 assessed as growth inhibition after 48 hrs by haemocytometric analysis; settings: Giardia duodenalis, IMSS:0981:1, 48 h
# [3] = test system: Trichomonas vaginalis; experiment: Antiprotozoal activity against trophozoite stage of Trichomonas vaginalis GT3 assessed as growth inhibition after 48 hrs by haemocytometric analysis; settings: GT3, 48 h
SMILES,IC50 [1],IC50 [2],IC50 [3]
COC(=O)c1cc2c(cc1Cl)nc(SCCn1ccnc1)n2C,42.8 nM,55.6 nM,86.9 nM
Cn1c(SCCn2ccnc2)nc2ccc(Cl)cc21,67.2 nM,62.6 nM,128 nM
COC(=O)c1cc2nc(SCCn3ccnc3)[nH]c2cc1Cl,57.9 nM,54.9 nM,72.7 nM
CCOc1ccc2nc(SCCn3ccnc3)n(C)c2c1,40.8 nM,45.2 nM,71.7 nM
Cn1c(SCCn2ccnc2)nc2cc(Cl)ccc21,66 nM,66.6 nM,135 nM
CCOc1cc2nc(SCCn3ccnc3)[nH]c2cc1Cl,62 nM,46.5 nM,99.1 nM
Cn1c(SCCn2ccnc2)nc2cc(Cl)c(Cl)cc21,64.2 nM,68.8 nM,96.3 nM
COC(=O)c1cc2nc(SCCn3ccnc3)n(C)c2cc1Cl,51.3 nM,44.2 nM,92.6 nM
CCOc1ccc2[nH]c(SCCn3ccnc3)nc2c1,42.8 nM,56.6 nM,71.7 nM
CCOc1ccc2c(c1)nc(SCCn1ccnc1)n2C,29.8 nM,8.3 nM,76.1 nM
COC(=O)c1ccc2nc(SCCn3ccnc3)n(C)c2c1,52.2 nM,56.9 nM,114 nM
CCOc1cc2c(cc1Cl)nc(SCCn1ccnc1)n2C,46 nM,35.6 nM,69.8 nM
Clc1cc2nc(SCCn3ccnc3)[nH]c2cc1Cl,59.1 nM,76.6 nM,140 nM
Clc1ccc2[nH]c(SCCn3ccnc3)nc2c1,73.5 nM,80.7 nM,170 nM
Cn1c(SCCn2ccnc2)nc2ccccc21,77.4 nM,87.1 nM,149 nM
COC(=O)c1ccc2[nH]c(SCCn3ccnc3)nc2c1,61.2 nM,77.7 nM,111 nM
COC(=O)c1ccc2c(c1)nc(SCCn1ccnc1)n2C,42.7 nM,61.6 nM,77.4 nM
CCOc1cc2nc(SCCn3ccnc3)n(C)c2cc1Cl,14.8 nM,20.8 nM,98 nM
Cc1ncc([N+](=O)[O-])n1CCO [METRONIDAZOLE],380 nM,,
c1ccc2[nH]c(SCCn3ccnc3)nc2c1,147 nM,117 nM,178 nM
